Measured values reported in US5462926A (Biomeasure, Inc., priority 1993, dated 1995).
Where a SMILES comes first, the peptide text is derived from it. Bridges are numbered along the chain shown (N, C = ends). [ ]: non-standard residue; d: D form. 2Nal = N[C@@H](Cc1ccc2ccccc2c1)C(=O)O; d2Nal = N[C@H](Cc1ccc2ccccc2c1)C(=O)O

Tests used:
Assay type in all cases: binding
Conditions in all cases: 1 μM
[1] = target: T1, CCKB (Rattus norvegicus, UniProt P30553); experiment: CCKB membrane receptor assay, rat cerebral cortex
T1 construct: rat cerebral cortex (CCKB, PYY, neurotensin,; from tissue; host or cells: rat cerebral cortex membranes
T1 sequence (P30553 whole entry): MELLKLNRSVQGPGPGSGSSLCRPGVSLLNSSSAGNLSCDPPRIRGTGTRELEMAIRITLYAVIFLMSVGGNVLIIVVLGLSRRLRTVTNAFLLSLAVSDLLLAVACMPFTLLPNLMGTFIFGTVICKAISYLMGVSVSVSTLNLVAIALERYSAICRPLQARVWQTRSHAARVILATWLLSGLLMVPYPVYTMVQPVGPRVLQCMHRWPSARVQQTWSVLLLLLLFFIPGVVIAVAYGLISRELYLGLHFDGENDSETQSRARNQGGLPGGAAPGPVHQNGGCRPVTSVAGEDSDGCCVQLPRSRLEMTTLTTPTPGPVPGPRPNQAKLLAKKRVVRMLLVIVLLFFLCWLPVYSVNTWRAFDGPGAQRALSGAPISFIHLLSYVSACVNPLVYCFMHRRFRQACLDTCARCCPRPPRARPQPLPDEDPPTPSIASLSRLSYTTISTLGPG

[2] = target: T2, endothelinA (Rattus norvegicus, UniProt P26684); experiment: EtA membrane receptor assay, A10 smooth muscle cells
T2 construct: A10 smooth muscle cells (EtA membrane receptor assay); endogenous in cells; host or cells: A10 smooth muscle cells (membranes)
T2 sequence (P26684 21-426): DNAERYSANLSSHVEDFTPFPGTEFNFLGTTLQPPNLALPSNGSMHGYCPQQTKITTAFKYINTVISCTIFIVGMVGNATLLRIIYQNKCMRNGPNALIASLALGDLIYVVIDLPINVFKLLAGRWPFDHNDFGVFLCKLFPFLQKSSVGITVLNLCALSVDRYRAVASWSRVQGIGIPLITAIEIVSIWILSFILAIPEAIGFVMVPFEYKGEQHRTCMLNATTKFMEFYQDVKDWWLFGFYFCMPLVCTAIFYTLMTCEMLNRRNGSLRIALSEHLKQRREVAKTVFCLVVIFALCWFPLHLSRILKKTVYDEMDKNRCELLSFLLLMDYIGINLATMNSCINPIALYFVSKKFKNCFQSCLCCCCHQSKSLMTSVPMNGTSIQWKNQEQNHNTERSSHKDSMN

[3] = test system: PYY receptor; experiment: PYY membrane receptor assay, rat cerebral cortex
[4] = test system: TRH receptor; experiment: TRH membrane assay, rat forebrain
[5] = test system: muscarinic cholinergic receptor; experiment: Muscarinic cholinergic membrane receptor assay, rat cerebral cortex
[6] = test system: benzodiazepine-neural receptor; experiment: Neural benzodiazepine membrane receptor assay, rat cerebral cortex
[7] = target: T3, histamine H1 receptor (Cavia porcellus, UniProt P31389); experiment: Histamine H1 membrane receptor assay, guinea pig cerebral
T3 construct: guinea pig cerebral (N1, histamine H1, and sigma opioid membrane receptor assays); from tissue; host or cells: guinea pig cerebral membranes
T3 sequence (P31389 whole entry): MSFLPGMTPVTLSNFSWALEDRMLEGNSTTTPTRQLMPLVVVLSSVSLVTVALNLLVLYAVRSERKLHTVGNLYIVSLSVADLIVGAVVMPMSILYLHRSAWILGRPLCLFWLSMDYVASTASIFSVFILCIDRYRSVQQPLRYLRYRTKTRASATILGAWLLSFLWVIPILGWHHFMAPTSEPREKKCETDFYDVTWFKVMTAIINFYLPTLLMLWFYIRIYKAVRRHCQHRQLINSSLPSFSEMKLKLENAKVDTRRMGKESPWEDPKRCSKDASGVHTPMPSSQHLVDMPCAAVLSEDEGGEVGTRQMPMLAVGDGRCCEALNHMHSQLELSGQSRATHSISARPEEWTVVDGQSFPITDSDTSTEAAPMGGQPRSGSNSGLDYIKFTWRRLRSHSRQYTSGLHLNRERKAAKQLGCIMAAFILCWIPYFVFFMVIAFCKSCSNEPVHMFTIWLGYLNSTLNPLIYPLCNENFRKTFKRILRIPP

[8] = target: T4, adenosine1 receptor (Rattus norvegicus, UniProt P25099); experiment: Adenosine membrane receptor assay, rat cerebral cortex
T4 construct: rat cerebral cortex (CCKB, PYY, neurotensin, α1 -adrenergic, α2 -adrenergic, muscarinic cholinergic, neural benzodiazepine, peripheral benzodiazepine, adenosine,; from tissue; host or cells: rat cerebral cortex membranes
T4 sequence (P25099 whole entry): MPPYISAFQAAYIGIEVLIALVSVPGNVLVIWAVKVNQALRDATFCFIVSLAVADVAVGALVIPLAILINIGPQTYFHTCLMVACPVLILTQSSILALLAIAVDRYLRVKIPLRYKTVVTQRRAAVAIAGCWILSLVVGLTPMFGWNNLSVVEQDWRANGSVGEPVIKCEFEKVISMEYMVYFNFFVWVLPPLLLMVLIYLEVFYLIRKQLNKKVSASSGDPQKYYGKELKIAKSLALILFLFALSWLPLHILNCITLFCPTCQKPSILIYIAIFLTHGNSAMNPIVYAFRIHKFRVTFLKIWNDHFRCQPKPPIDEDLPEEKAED

CC(C)[C@@H]1NC(=O)[C@H](CCCCN)NC(=O)[C@@H](Cc2c[nH]c3ccccc23)NC(=O)[C@H](Cc2ccc(O)cc2)NC(=O)[C@@H](NC(=O)[C@H](N)Cc2ccc3ccccc3c2)CSSC[C@@H](C(=O)N[C@@H](Cc2ccc3ccccc3c2)C(N)=O)NC1=O [Analog #1, H2 -D-Nal-Cys-Tyr-D-Trp-Lys-Val-Cys-Nal-NH2] (H-[d2Nal]CY[dW]KVC[2Nal]-NH2; disulfide 2-7)
did not inhibit binding: inhibition of binding to CCKB receptors [1] | inhibition of binding to endothelinA receptors [2] | inhibition of binding to PYY receptors [3] | inhibition of binding to TRH receptors [4] | inhibition of binding to muscarinic cholinergic receptors [5] | inhibition of binding to benzodiazepine-neural receptors [6] | inhibition of binding to histamine H1 receptors [7] | inhibition of binding to adenosine1 receptors [8]
